Patent publication US8389523B2, “Substituted quinoxaline and an agrochemical composition thereof” (Kumiai Chemical Industry Co., Ltd., priority 2007, dated 2013)

Columns and labels:
Format in all cases: in vivo
Set-up in all cases: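 grade 0 to 5 of growth suppression where 5 is 90% or more and 0 below 10%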
[1] = system: Abutilon theophrasti medicus; test: Herbicidal effects in upland field foliar treatment (Test Example 3); settings: criteria of Table 138; for herbicidal effects on Abutilon theophrasti medicus: 1000 g of the active ingredient per hectare, 14th day after the treatment, wettable powder; for herbicidal effect (index) on Abutilon theophrasti medicus: 1000 g active ingredient per hectare, 14th day after treatment
Procedure: (§1) Test Example 3 Test on Herbicidal Effects in Upland Field Foliar Treatment A 80-cm^2 plastic pot was filled with upland field soil. Seeds of Echinochloa crus-galli (L.) P. Beauv. var. crus-galli, Abutilon theophrasti medicus and Amaranthus viridis L. were sowed, and the plants were grown for two weeks in a greenhouse. A wettable powder formulation prepared according to Preparation Example 1 was diluted with water, and was sprayed with a small sprayer to perform foliar application over the entirety of plants from the upper side, in an amount equivalent to 1000 liters per hectare, such that 1000 g of the active ingredient per hectare was applied. Thereafter, the plants were grown in a greenhouse, and on the 14th day after the treatment, the herbicidal effects were investigated according to the criteria described in the Table 138 shown above.

[2] = system: Echinochloa crus-galli (L.) P. Beauv. var. crus-galli; test: as above; settings: criteria of Table 138; for herbicidal effects on Echinochloa crus-galli (L.) P. Beauv. var. crus-galli: 1000 g of the active ingredient per hectare, 14th day after the treatment, wettable powder; for herbicidal effect (index) on Echinochloa crus-galli (L.) P. Beauv. var. crus-galli: 1000 g active ingredient per hectare, 14th day after treatment
Procedure: as §1

Amaranthus viridis L. [3] = test: as above; settings: criteria of Table 138; for herbicidal effects on Amaranthus viridis L.: 1000 g of the active ingredient per hectare, 14th day after the treatment, wettable powder; for herbicidal effect (index) on Amaranthus viridis L.: 1000 g active ingredient per hectare, 14th day after treatment
Procedure: as §1

[4] = system: Abutilon theophrasti medicus; test: Herbicidal effects in upland field soil treatment (Test Example 2); settings: 1000 g active ingredient per hectare, 21st day after treatment, criteria of Table 138
Procedure, shortened: (§2)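 Herbicidal effect graded 21 days after treatment, plants kept in greenhouse. Treatment was a soil-surface spray of wettable powder in water, 1000 g a.i./ha in 1000 L/ha, applied after sowing and covering seeds.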

Amaranthus viridis L. [5] = test: as above; settings: 1000 g active ingredient per hectare, 21st day after treatment, criteria of Table 138
Procedure, shortened: as §2

[6] = system: Scirpus juncoides Roxb. var. ohwianus. T. Koyama; test: Herbicidal effects in paddy field soil treatment (Test Example 1); settings: paddy field soil treatment; 1000 g of the active ingredient per hectare; wettable powder added dropwise on water surface; 21st day after treatment
Procedure, shortened: (§3)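 Application rate 1000 g a.i./ha, delivered as water-diluted wettable powder onto flooded (3 cm) paddy soil one day after sowing. Plants kept in a greenhouse and evaluated for herbicidal effect on day 21 post-treatment.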

[7] = system: Monochoria vaginalis (Burm. f.) Presl var. plantaginea (Roxb.) Solms-Laub.; test: as above; settings: paddy field soil treatment; 1000 g of the active ingredient per hectare; wettable powder added dropwise on water surface; 21st day after treatment
Procedure, shortened: as §3

[8] = system: Echinochloa oryzicola Vasing; test: as above; settings: paddy field soil treatment; 1000 g of the active ingredient per hectare; wettable powder added dropwise on water surface; 21st day after treatment
Procedure, shortened: as §3

Row | Compound | herbicidal effects on Abutilon theophrasti medicus [1] | herbicidal effects on Echinochloa crus-galli (L.) P. Beauv. var. crus-galli [2] | herbicidal effects on Amaranthus viridis L. (Amaranthus viridis L. [3]) | herbicidal effect (index) on Abutilon theophrasti medicus [4] | herbicidal effect (index) on Amaranthus viridis L. (Amaranthus viridis L. [5]) | herbicidal effect (index) on Abutilon theophrasti medicus [1] | herbicidal effect (index) on Echinochloa crus-galli (L.) P. Beauv. var. crus-galli [2] | herbicidal effect (index) on Amaranthus viridis L. (Amaranthus viridis L. [3]) | Herbicidal effects index, Scirpus juncoides Roxb. var. ohwianus. T. Koyama [6] | Herbicidal effects index, Monochoria vaginalis (Burm. f.) Presl var. plantaginea (Roxb.) Solms-Laub. [7] | Herbicidal effects index, Echinochloa oryzicola Vasing [8]
1 | COc1cc(-n2c(=O)c(C(=O)C3=C(O)CCCC3=O)nc3c(F)cccc32)cc(OC)c1OC [II-234] | 5 | 4 | 5 | 5 | 5 |  |  |  |  |  | 
2 | CSCn1c(=O)c(C(=O)C2=C(O)C3CCC(C3)C2=O)nc2ccccc21 (stereo not drawn) [I-71] |  |  |  | 5 | 5 | 5 | 5 | 5 |  |  | 
3 | CS(=O)(=O)CCn1c(=O)c(C(=O)C2=C(O)CCCC2=O)nc2ccccc21 [Compound I-92] |  |  |  |  |  | 5 | 5 | 5 | 5 | 5 | 4
4 | C#CCOc1ccc(-n2c(=O)c(C(=O)C3=C(O)CCCC3=O)nc3ccccc32)cc1 [II-84] | 4 | 4 | 5 |  |  |  |  |  | 5 | 5 | 5
5 | CS(=O)(=O)c1cccc(-n2c(=O)c(C(=O)C3=C(O)CCCC3=O)nc3ccccc32)c1 [II-124] | 4 | 5 | 5 |  |  |  |  |  | 5 | 5 | 4
6 | Cc1cc(-n2c(=O)c(C(=O)C3=C(O)CCCC3=O)nc3ccccc32)ccc1F [II-214] | 5 | 5 | 5 |  |  |  |  |  | 5 | 5 | 5
7 | CN(C)c1ccc(-n2c(=O)c(C(=O)C3=C(O)CCCC3=O)nc3ccccc32)cc1 [II-210] | 5 | 4 | 5 |  |  |  |  |  | 5 | 5 | 5
8 | COc1ccc(-n2c(=O)c(C(=O)C3=C(O)CCCC3=O)nc3cccc(OC)c32)cc1 [II-257] | 4 | 5 | 5 |  |  |  |  |  | 5 | 5 | 5
9 | CSCCn1c(=O)c(C(=O)C2=C(O)CCCC2=O)nc2ccccc21 [Compound I-91] |  |  |  |  |  | 5 | 5 | 5 | 5 | 5 | 5
10 | Cn1c(=O)c(C(=O)C2=C(O)C3CCC(C3)C2=O)nc2ccccc21 (stereo not drawn) [I-5] |  |  |  | 5 | 5 | 5 | 4 | 5 |  |  | 
11 | COc1ccc(-n2c(=O)c(C(=O)C3=C(O)CCCC3=O)nc3ccccc32)cc1F [II-178] | 5 | 5 | 5 |  |  |  |  |  | 5 | 5 | 4
12 | CCCCCCn1c(=O)c(C(=O)C2=C(O)CCCC2=O)nc2ccccc21 [Compound I-22] |  |  |  |  |  | 5 | 4 | 5 | 5 | 5 | 5
13 | COc1ccc2nc(C(=O)C3=C(O)CCCC3=O)c(=O)n(-c3cc(F)c(OC)c(F)c3)c2c1 [II-255] | 4 | 5 | 5 |  |  |  |  |  | 5 | 5 | 5
14 | C#CCn1c(=O)c(C(=O)C2=C(O)CCCC2=O)nc2ccccc21 [I-35] |  |  |  |  |  | 5 | 4 | 5 | 5 | 5 | 5
15 | O=C1CCCC(O)=C1C(=O)c1nc2ccccc2n(-c2ccc(O)cc2)c1=O [II-51] | 5 | 4 | 5 |  |  |  |  |  | 5 | 5 | 5
16 | COc1cccc2nc(C(=O)C3=C(O)CCCC3=O)c(=O)n(-c3ccccc3)c12 [II-256] | 4 | 5 | 5 |  |  |  |  |  | 5 | 5 | 5
17 | O=C1CCCC(O)=C1C(=O)c1nc2ccccc2n(Cc2ccccc2Cl)c1=O [I-111] |  |  |  |  |  | 5 | 5 | 5 | 5 | 5 | 5
18 | O=C1CCCC(O)=C1C(=O)c1nc2ccccc2n(-c2ccc(OCC3CCCO3)cc2)c1=O (stereo not drawn) [II-116] | 4 | 4 | 5 |  |  |  |  |  | 5 | 5 | 5
